Here are results for six molecules from ChEMBL document CHEMBL4622913, “Synthesis and biological evaluation of arylphosphonium-benzoxaborole conjugates as novel anticancer agents” (Bioorg Med Chem Lett, 2020).

What all share (format): functional, cell-based
Test [1] has as its system WiDr. The test can be described thus: Antiproliferative activity against human WiDr cells assessed as reduction in cell viability after 72 hrs by MTT assay. On the technique in general: Formazan colour is commonly taken as a measure of viable cells.
For a further test, the system named is MCF7. The test can be described thus: Antiproliferative activity against human MCF7 cells assessed as reduction in cell viability after 72 hrs by MTT assay. The note with it: MCF7, 72 h.
In the next test the test system is MIA PaCa-2. In words: Antiproliferative activity against human MIAPaCa2 cells assessed as reduction in cell viability after 72 hrs by MTT assay. The note with it: MIA PaCa-2, 72 h.
For test [2], the system named is 4T1. In words: Antiproliferative activity against mouse 4T1 cells assessed as reduction in cell viability after 72 hrs by MTT assay. Particulars: 4T1, 72 h.
Test [3] relates to 4T1. The test can be described thus: Induction of mitochondrial morphological changes in mouse 4T1 cells assessed as fragmentation of mitochondrial networks at 100 uM after 24 hrs by mitotracker Red-CMXROS dye based epifluorescent microscopic analysis.
For test [4], the system named is WiDr. In words: Induction of mitochondrial morphological changes in human WiDr cells assessed as fragmentation of mitochondrial networks at 100 uM after 24 hrs by mitotracker Red-CMXROS dye based epifluorescent microscopic analysis.
Test [5] concerns 4T1. In words: Induction of mitochondrial membrane damage in mouse 4T1 cells assessed as increase in proton leak at 50 to 100 uM in presence of oligomycin/FCCP/antimycin/rotenone by seahorse XFe96 analyser based assay.
The subject of test [6] is WiDr. In words: Induction of mitochondrial stress in human WiDr cells assessed as effect on spare respiratory capacity at 50 to 100 uM in presence of oligomycin/FCCP/antimycin/rotenone by seahorse XFe96 analyser based assay.
Test [7] concerns WiDr. In words: Induction of mitochondrial stress in human WiDr cells assessed as reduction in maximal respiration at 50 to 100 uM in presence of oligomycin/FCCP/antimycin/rotenone by seahorse XFe96 analyser based assay.
The subject of test [8] is 4T1. The test can be described thus: Induction of mitochondrial stress in mouse 4T1 cells assessed as effect on spare respiratory capacity at 50 to 100 uM in presence of oligomycin/FCCP/antimycin/rotenone by seahorse XFe96 analyser based assay.
In test [9] the test system is 4T1. In words: Induction of mitochondrial stress in mouse 4T1 cells assessed as reduction in maximal respiration at 100 uM in presence of oligomycin/FCCP/antimycin/rotenone by seahorse XFe96 analyser based assay.
Test [10] has as its system 4T1. In words: Induction of glycolytic stress in mouse 4T1 cells assessed as increase in glycolysis at 50 to 100 uM in presence of glucose/oligomycin and 2-deoxyglucose by seahorse XFe96 analyser based assay.
For test [11], the system named is WiDr. The test can be described thus: Induction of mitochondrial stress in human WiDr cells assessed as acute change in oxygen consumption rate by measuring reduction in ATP production at 50 to 100 uM in presence of oligomycin/FCCP/antimycin/rotenone by seahorse XFe96 analyser based assay.
For test [12], the system named is 4T1. The test can be described thus: Induction of mitochondrial stress in mouse 4T1 cells assessed as acute change in oxygen consumption rate by measuring reduction in ATP production at 100 uM in presence of oligomycin/FCCP/antimycin/rotenone by seahorse XFe96 analyser based assay.
In test [13] the test system is 4T1. The test can be described thus: Induction of glycolytic stress in mouse 4T1 cells assessed as reduction in glycolytic capacity at 50 to 100 uM in presence of glucose/oligomycin and 2-deoxyglucose by seahorse XFe96 analyser based assay.
Test [14] relates to WiDr. In words: Induction of glycolytic stress in human WiDr cells assessed as increase in glycolysis at 50 to 100 uM in presence of glucose/oligomycin and 2-deoxyglucose by seahorse XFe96 analyser based assay.
The subject of test [15] is WiDr. In words: Induction of glycolytic stress in human WiDr cells assessed as reduction in glycolytic reverse at 50 to 100 uM in presence of glucose/oligomycin and 2-deoxyglucose by seahorse XFe96 analyser based assay.
Test [16] concerns 4T1. In words: Induction of glycolytic stress in mouse 4T1 cells assessed as reduction in glycolytic reverse at 50 to 100 uM in presence of glucose/oligomycin and 2-deoxyglucose by seahorse XFe96 analyser based assay.
Test [17] has as its system WiDr. The test can be described thus: Induction of mitochondrial membrane damage in human WiDr cells assessed as increase in proton leak at 50 to 100 uM in presence of oligomycin/FCCP/antimycin/rotenone by seahorse XFe96 analyser based assay.
Test [18] deals with WiDr. The test can be described thus: Induction of glycolytic stress in human WiDr cells assessed as reduction in glycolytic capacity at 100 uM in presence of glucose/oligomycin and 2-deoxyglucose by seahorse XFe96 analyser based assay.

The source made the active and inactive calls. The rule behind the calls is not given here. A value given as a limit tells only on which side of the number the result lay.

By IC50 is commonly meant the point on the concentration scale where inhibition reaches its midpoint. Consider `COc1ccc([P+](CCC(=O)Nc2ccc3c(c2)B(O)OC3)(c2ccc(OC)cc2)c2ccc(OC)cc2)cc1`, for which the IC50 in the test with WiDr [1], in the test with MCF7, in the test on MIA PaCa-2 and in the test on 4T1 [2] was greater than 100 µM throughout.
On to `O=C(CC[P+](c1ccccc1)(c1ccccc1)c1ccccc1)Nc1ccc2c(c1)B(O)OC2`, for which the half-inhibitory concentration (IC50) with WiDr [1], with MCF7, in the test on MIA PaCa-2 and in the test with 4T1 [2] was greater than 100 µM in each case. The result in the test on 4T1 [3] and in the test on WiDr [4] was inactive.
As to `O=C(CC[P+](c1ccc(F)cc1)(c1ccc(F)cc1)c1ccc(F)cc1)Nc1ccc2c(c1)B(O)OC2`, the IC50 with WiDr [1], with MCF7, in the test on MIA PaCa-2 and in the test with 4T1 [2] was greater than 100 µM each time. Moreover, the outcome with 4T1 [3] and with WiDr [4] was inactive.
`O=C(CCBr)Nc1ccc2c(c1)B(O)OC2`: the IC50 with WiDr [1], in the test on MCF7, in the test on MIA PaCa-2 and in the test on 4T1 [2] was greater than 100 µM each time.
With `Cc1ccc([P+](CCC(=O)Nc2ccc3c(c2)B(O)OC3)(c2ccc(C)cc2)c2ccc(C)cc2)cc1`, the outcome in the test on 4T1 [5], with 4T1 [3], with WiDr [7], with 4T1 [10], in the test with WiDr [11] and in the test with 4T1 [12] was Active. Also, the outcome with WiDr [4], in the test on WiDr [14], in the test with WiDr [15], with 4T1 [16], in the test with WiDr [17] and in the test with WiDr [18] was Active. Moreover, the IC50 stood at 24 µM with WiDr [1], 46 µM with MCF7, 44 µM in the test with MIA PaCa-2 and 50 µM in the test with 4T1 [2]. Moreover, the outcome in the test with WiDr [6], in the test with 4T1 [8], with 4T1 [9] and in the test with 4T1 [13] was inactive.
Consider `O=C(CC[P+](c1ccccc1)(c1ccccc1)C1CCCCC1)Nc1ccc2c(c1)B(O)OC2`, for which the IC50 in the test with WiDr [1], with MCF7, with MIA PaCa-2 and with 4T1 [2] was greater than 100 µM throughout.
